Reference: article PMC12860872, “Preclinical evaluation of DOTAGA.Glu.(FAPI)2 and DO3A.Glu.(FAPI)2 as theranostics with human dosimetry extrapolation to lutetium-177 and terbium-161 analogs” (European Journal of Nuclear Medicine and Molecular Imaging, 2025)
Where “and” joins values, the source holds several entries; their conditions need not be identical. Equal entries are not always repeated.

How the values were obtained:
PC3-mice = assay: Biodistribution in PC3-mice incl. blocking; format: in vivo, mouse; details: PC3-mice
Method: Male athymic Balb/C nude mice (6 weeks/20–25 g) were implanted with PC3 cells (3.5 × 10^6/100 µL PBS) into their right shoulder to develop tumors. The animals were used for biodistribution and PET/SPECT/CT imaging studies, once tumors reached 250–300 mm^3.
All mice were euthanized with intraperitoneal injection of pentobarbital (150 mg/kg), and selected organs were dissected, weighed, and measured for radioactivity using a gamma-counter. Results are expressed as % injected activity per gram tissue (% I.A./g), presented as mean ± SD (n = 3–4).

FAP = target: T1, FAP (Homo sapiens, UniProt Q12884); assay: Saturation binding on FAP+ CAFs; details: listed as 68/natGa-DO3A.Glu.(FAPI)2
T1 construct: the CAF cells overexpressing FAP were seeded at a density of 0.8-1 million cells per well; host or cells: hTERT PF179T prostate cancer-associated fibroblasts
T1 sequence (Q12884 1-760): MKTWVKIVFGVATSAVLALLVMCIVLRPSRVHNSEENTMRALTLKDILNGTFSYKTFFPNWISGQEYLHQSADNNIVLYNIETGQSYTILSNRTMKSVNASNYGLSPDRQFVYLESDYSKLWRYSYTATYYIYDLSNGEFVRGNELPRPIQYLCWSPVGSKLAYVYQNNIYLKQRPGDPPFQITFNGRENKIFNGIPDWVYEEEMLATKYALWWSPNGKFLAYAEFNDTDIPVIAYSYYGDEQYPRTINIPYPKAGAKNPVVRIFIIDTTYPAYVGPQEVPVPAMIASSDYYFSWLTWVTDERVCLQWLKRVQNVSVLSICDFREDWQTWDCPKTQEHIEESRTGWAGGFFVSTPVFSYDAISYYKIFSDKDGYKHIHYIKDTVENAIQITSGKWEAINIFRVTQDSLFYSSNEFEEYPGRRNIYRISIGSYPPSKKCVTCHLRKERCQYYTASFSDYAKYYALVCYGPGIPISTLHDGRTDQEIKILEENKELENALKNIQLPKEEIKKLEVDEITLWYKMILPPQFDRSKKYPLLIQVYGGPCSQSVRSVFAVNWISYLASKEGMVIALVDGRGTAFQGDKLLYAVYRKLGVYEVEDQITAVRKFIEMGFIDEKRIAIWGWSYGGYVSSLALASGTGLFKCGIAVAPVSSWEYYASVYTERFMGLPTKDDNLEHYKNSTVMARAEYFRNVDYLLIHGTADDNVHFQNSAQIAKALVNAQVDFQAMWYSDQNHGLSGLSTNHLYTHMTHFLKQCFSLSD
Method: For receptor saturation studies, FAP^+ CAFs were incubated with 0.1 to 10 nM of the radioligands. For internalization studies, approximately 2.5 pmol of the radioligands were added to CAFs followed by incubation for 15, 30, 60, 90, 120, 180 and 240 min for the ^68Ga-labeled or 30, 60, 120, 240 and 360 min for the ^177Lu-labeled radioligands at 37 °C, 5% CO2. For the externalization studies, approximately 2.5 pmol of the ^177Lu-labeled radioligands were added to CAFs followed by incubation for 2 h at 37 °C, 5% CO2. The amount of externalized activity was measured at 0, 10, 20, 30, 60, 120, 240, and 1440 min (Supplemental Data).
For receptor saturation analysis, the CAF cells overexpressing FAP were seeded at a density of 0.8-1 million cells per well in 6-well plates, pre-coated with BME (Cultrex Reduced Growth Factor Basement Membrane Extract, RGF BME, R&D System, Minneapolis, USA) to enhance cell attachment. The cells were incubated overnight with medium (EMEM supplemented and containing 10% FBS, 100 U/mL penicillin and 100 μg/mL streptomycin). The next day, the medium was removed and the cells were incubated for 30 minutes at 37 °C, with 0.8 mL of fresh medium. Afterwards, the plates were placed on ice for 30 minutes followed by incubation with increasing concentrations of ^68/natGa- and ^177/natLu-labelled DOTAGA.Glu.(FAPI)2 and DO3A.Glu.( FAPI)2 (0.1-10 nM final concentration in the wells). After the addition of the radioligands, the cells were incubated for 120 minutes at 4 °C. Non-specific binding was determined in the presence of UAMC1110 at a final concentration of 1 μM. After the completion of the incubation, the cells were washed twice with ice-cold PBS, followed by solubilization with 1 M NaOH. The cell-associated radioactivity was measured using a gamma-counter. Specific binding was plotted against the total molar concentration of the added radiotracer. The Kd values and the concentration of the radioligand required to saturate the receptors (Bmax) were determined by nonlinear regression using GraphPad (Prism 8 Graph Pad Software, San Diego, CA). For all the cell studies the values are normalized for 1x10^6 cells per well and all data are from two independent experiments with triplicates in each experiment.

[1] = Blocking 1h (20 nmol unlabeled precursor)

Uptake in Adrenal (PC3-mice; 1 h p.i.): 3.6±1.1 %I.A./g
Uptake in Blood (PC3-mice; 1 h p.i.): 2±0.1 %I.A./g
Uptake in Bone (PC3-mice; 1 h p.i.): 5±3.1 %I.A./g
Uptake in Gallbladder (PC3-mice; 1 h p.i.): 2.3±1.8 %I.A./g
Uptake in Heart (PC3-mice; 1 h p.i.): 1±0.1 %I.A./g
Uptake in Intestine (PC3-mice; 1 h p.i.): 0.9±0.2 %I.A./g
Uptake in Kidney (PC3-mice; 1 h p.i.): 6.7±1.7 %I.A./g
Uptake in Liver (PC3-mice; 1 h p.i.): 4.2±1.2 %I.A./g
Uptake in Lung (PC3-mice; 1 h p.i.): 3.8±1 %I.A./g
Uptake in Muscle (PC3-mice; 1 h p.i.): 2±0.03 %I.A./g
Uptake in Pancreas (PC3-mice; 1 h p.i.): 1.8±0.1 %I.A./g
Uptake in Salivary glands (PC3-mice; 1 h p.i.): 6.4±0.5 %I.A./g
Uptake in Spleen (PC3-mice; 1 h p.i.): 1.3±0.3 %I.A./g
Uptake in Stomach (PC3-mice; 1 h p.i.): 0.9±0.1 %I.A./g
Uptake in Tumor (PC3-mice; 1 h p.i.): 19±2.4 %I.A./g
Uptake in Adrenal (PC3-mice; 2 h p.i.): 2.5±0.8 %I.A./g
Uptake in Blood (PC3-mice; 2 h p.i.): 2.2±0.1 %I.A./g
Uptake in Bone (PC3-mice; 2 h p.i.): 6.3±1 %I.A./g
Uptake in Gallbladder (PC3-mice; 2 h p.i.): 3.5±1.8 %I.A./g
Uptake in Heart (PC3-mice; 2 h p.i.): 0.8±0.03 %I.A./g
Uptake in Intestine (PC3-mice; 2 h p.i.): 1±0.2 %I.A./g
Uptake in Kidney (PC3-mice; 2 h p.i.): 4.4±0.8 %I.A./g
Uptake in Liver (PC3-mice; 2 h p.i.): 3.3±0.9 %I.A./g
Uptake in Lung (PC3-mice; 2 h p.i.): 2.5±0.6 %I.A./g
Uptake in Muscle (PC3-mice; 2 h p.i.): 1.3±0.3 %I.A./g
Uptake in Pancreas (PC3-mice; 2 h p.i.): 1.7±0.1 %I.A./g
Uptake in Salivary glands (PC3-mice; 2 h p.i.): 5.2±0.1 %I.A./g
Uptake in Spleen (PC3-mice; 2 h p.i.): 1.6±0.4 %I.A./g
Uptake in Stomach (PC3-mice; 2 h p.i.): 0.9±0.1 %I.A./g
Uptake in Tumor (PC3-mice; 2 h p.i.): 19.6 ± 0.7 %I.A./g
Uptake in Adrenal (PC3-mice; 3 h p.i.): 2.4±0.8 %I.A./g
Uptake in Blood (PC3-mice; 3 h p.i.): 2.2±0.1 %I.A./g
Uptake in Bone (PC3-mice; 3 h p.i.): 5.8±1 %I.A./g
Uptake in Gallbladder (PC3-mice; 3 h p.i.): 1.7±0.9 %I.A./g
Uptake in Heart (PC3-mice; 3 h p.i.): 0.7±0.1 %I.A./g
Uptake in Intestine (PC3-mice; 3 h p.i.): 0.9±0.2 %I.A./g
Uptake in Kidney (PC3-mice; 3 h p.i.): 3.4±0.4 %I.A./g
Uptake in Liver (PC3-mice; 3 h p.i.): 2.8±0.3 %I.A./g
Uptake in Lung (PC3-mice; 3 h p.i.): 1.7±0.3 %I.A./g
Uptake in Muscle (PC3-mice; 3 h p.i.): 1.1±0.1 %I.A./g
Uptake in Pancreas (PC3-mice; 3 h p.i.): 1.4±0.1 %I.A./g
Uptake in Salivary glands (PC3-mice; 3 h p.i.): 5±1.4 %I.A./g
Uptake in Spleen (PC3-mice; 3 h p.i.): 1.4±0.3 %I.A./g
Uptake in Stomach (PC3-mice; 3 h p.i.): 0.7±0.02 %I.A./g
Uptake in Tumor (PC3-mice; 3 h p.i.): 17.5 ± 1.1 %I.A./g
Uptake in Adrenal (PC3-mice; [1]): 0.1±0.6 %I.A./g
Uptake in Blood (PC3-mice; [1]): 2.3±0.5 %I.A./g
Uptake in Bone (PC3-mice; [1]): 0.3±0.1 %I.A./g
Uptake in Gallbladder (PC3-mice; [1]): 3.5±0.3 %I.A./g
Uptake in Heart (PC3-mice; [1]): 0.7±0.2 %I.A./g
Uptake in Intestine (PC3-mice; [1]): 0.8±0.3 %I.A./g
Uptake in Kidney (PC3-mice; [1]): 6.2±1.2 %I.A./g
Uptake in Liver (PC3-mice; [1]): 3.2±0.7 %I.A./g
Uptake in Lung (PC3-mice; [1]): 2.1±0.4 %I.A./g
Uptake in Muscle (PC3-mice; [1]): 0.3±0.01 %I.A./g
Uptake in Pancreas (PC3-mice; [1]): 0.4±0.1 %I.A./g
Uptake in Salivary glands (PC3-mice; [1]): 0.7±0.1 %I.A./g
Uptake in Spleen (PC3-mice; [1]): 1±0.1 %I.A./g
Uptake in Stomach (PC3-mice; [1]): 0.8±0.3 %I.A./g
Uptake in Tumor (PC3-mice; [1]): 1.3±0.2 %I.A./g
Blood pool retention (PC3-mice; over 3 h): around 2 %I.A./g
tumor uptake (PC3-mice; sustained up to 3 h p.i.): 18–19 %I.A./g
Kd (FAP; 0.1 to 10 nM radioligand): 900 pM and 890 pM
Bmax (FAP): 0.5 ± 0.05 nM and 0.54 ± 0.05 nM
SMILES: N#C[C@@H]1CC(F)(F)CN1C(=O)CNC(=O)c1ccnc2ccc(OCCCCNC(=O)CC[C@H](NC(=O)CN3CCN(CC(=O)[O-])CCN(CC(=O)[O-])CCN(CC(=O)[O-])CC3)C(=O)NCCCCOc3ccc4nccc(C(=O)NCC(=O)N5CC(F)(F)C[C@H]5C#N)c4c3)cc12.[68Ga+3] [[^68Ga]Ga-DO3A.Glu.(FAPI)2]
